Data set [1] is described as follows: Liver microsomes stability, rat. Conditions: for half-life at 2 μM / microsomal CLint at 2 μM: male, rat, microsomes; for Remaining Percentage (%) after 60 min Rat: with NADPH, 2 μM, 0.5 mg/mL microsomes. Here is the method:
(§1) The objective of this study was to estimate in vitro metabolic stability of I-12 in pooled human, male rat and male mouse liver microsomes. The concentrations of parent compounds in reaction systems were evaluated by LC-MS/MS for estimating the stability in pooled human, male rat and male mouse liver microsomes. The in vitro intrinsic clearances of test compounds were determined as well.
(§2) A master solution in the “Incubation Plate” containing phosphate buffer, ultra-pure H2O, MgCl2 solution and liver microsomes was made according to Table-3. The mixture was pre-warmed at 37° C. water bath for 5 minutes.
(§3) 40 μL of 10 mM NADPH solution was added to each well. The final concentration of NADPH was 1 mM. The negative control samples were prepared by replacing NADPH with 40 μL of ultra-pure H2O. Samples were prepared in duplicate. Negative controls were prepared in singlet.
(§4) The reaction was started with the addition of 4 μL of 200 μM exemplary test compounds of the application or control compounds to each master solution to get the final concentration of 2 μM. This study was performed in duplicate.
(§5) Aliquots of 50 μL were taken from the reaction solution at 0, 15, 30, 45 and 60 minutes. The reaction solutions were stopped by the addition of 4 volumes of cold methanol with IS (100 nM alprazolam, 200 nM imipramine, 200 nM labetalol and 2 μM ketoprofen). Samples were centrifuged at 3,220 g for 40 minutes. Aliquot of 90 μL of the supernatant was mixed with 90 μL of ultra-pure H2O and then was used for LC-MS/MS analysis.
(§6) LC/MS analysis was performed for all samples from this study using a Shimadzu liquid chromatograph separation system equipped with degasser DGU-20A5R; solvent delivery unit LC-30AD; system controller SIL-30AC; column oven CTO-30A; CTC Analytics HTC PAL System. Mass spectrometric analysis was performed using an Triple Quad™ 5500 instrument.
(§7) All calculations were carried out using Microsoft Excel. Peak area ratios of test compound to internal standard (listed in the below table) were determined from extracted ion chromatograms.
(§8) All calculations were carried out using Microsoft Excel. Peak areas were determined from extracted ion chromatograms. The slope value, k, was determined by linear regression of the natural logarithm of the remaining percentage of the parent drug vs. incubation time curve.
(§9) Conversion of the in vitro t1/2 (min) into the in vitro intrinsic clearance (in vitro CLint, in μL/min/mg proteins) was done using the following equation (mean of duplicate determinations): […]

Data set [2] can be described thus: Liver microsomes stability, mouse. Conditions: for half-life at 2 μM / microsomal CLint at 2 μM: male, mouse, microsomes; for Remaining Percentage (%) after 60 min Mouse: with NADPH, 2 μM, 0.5 mg/mL microsomes. How it is done:
as §1, §2, §3, §4, §5, §6, §7, §8, §9
(In general: Microsomes from liver hold many membrane-bound enzymes, among them those of drug oxidation.)

For data set [3], the target named is human 5-HT2A (h5-HT2A) receptor (Homo sapiens (Human), UniProt P28223). The data set can be described thus: FLIPR assay, human 5-HT2A receptor under agonist mode. Type of data set: cell-based. Here is the method:
• I. Assessment of the activated effect of exemplary compounds of Formula I targeting on human 5-HT2A (h5-HT2A) receptor under agonist mode: Compound Preparation and Assay Controls I.a. Reagent and Materials:
1. Culture the cells in cell culture medium (DMEM containing 10% FBS 1× penicillin-streptomycin 300 μg/ml G418 and 100 μg/ml hygromycin B) at 37° C., 5% (v/v) CO2.
2. One day before the assays, detach the cell using TrypLE™ Express and count cells using cell counter.
3. Seed 20000 cells/well in 30 μl/well culture medium to a 384-well cell plate and incubate the cells overnight at 37° C., 5% (v/v) CO2.
4. On the assay day, prepare 2× dye solution following the manual of the FLIPR® Calcium 6 Assay Kit: i. Dilute the dye with assay buffer (20 mM HEPES in 1×HBSS, PH7.4); ii. Add probenecid to the final concentration of 5 mM; iii. Vortex vigorously for 1-2 minutes.
5. Medium from cell plate by flicking the cell plate on towel papers.
6. Add 10 μl of assay buffer and 10 μl of 2× dye solution to each well of the cell plate.
7. Put the cell plate on plate shaker, agitate the plate at 600 rpm for 2 minutes. Incubate the plate at 37° C. for 2 hours followed by additional 15-minute incubation at 25° C.
8. Prepare 3× compound in assay buffer: a. Dilute reference compounds to required concentration with DMSO. Add the compounds to a 384-well compound plate; b. Perform serial dilutions; c. Add 10 mM test compounds to the compound plate, perform 3-fold serial dilutions. d. […] Add 20 μl/well assay buffer to the compound plate; f. Mix the plate on plate shaker for 2 mins;
i. The normalized fluorescence reading (RFU) is calculated as shown follow, while Fmax and Fmin stand for maximum and minimum of calcium signal during defined time window: RFU=Fmax−Fmin
ii. Calculate the percentage activation by using following equation: […]
iii. Calculate EC50 by fitting % activation against log of compound concentrations with Hill equation using XLfit.

Data set [4] in a line: In vivo pharmacokinetics of I-28 and its metabolite I-45 in mice (i.v. and p.o.). Further details: species or system Male C57 BL/6 mice. How it is done:
Male C57 BL/6 mice (25-30 g) from Charles River Labs were acclimatized for a minimum of 5 days prior to dosing. Body weights were recorded on the day of dosing.
Animals dosed p.o. were deprived of food overnight and fed ˜2 h following dosing.
Formulations were administered intravenously (i.v.) via the tail vein or orally (p.o.) by gavage with disposable feeding needles.
Serial blood samples were collected via tail snip. Terminal blood samples were collected under isoflurane anesthesia by cardiac puncture.
All blood samples were transferred into K2EDTA tubes on wet ice and centrifuged within 5 min (3200×g for 5 min at 4° C.) to obtain plasma. Plasma were stored at −80° C. until analysis.
AB Sciex QTRAP 4000 or 6500 MS/MS system equipped with an LC system with a binary pump, a solvent degasser, a thermostated column compartment and a multiplate autosampler. i. Analysis software: Phoenix® WinNonlin® 8.2 (Pharsight, Certara, Mountainview, Calif.) ii. Analysis methods: non-compartmental analysis, linear up/log down trapezoidal rule iii. PK parameters: C0, t1/2, AUC0-tlast, AUC0-∞, CL, VSS, MRT, tmax(po), Cmax(po), F, as appropriate C0 concentration extrapolated to time zero following an i.v. dose tmax time at which maximum concentration is observed Cmax maximum observed concentration Apparent t1/2 apparent terminal half-life area under the concentration vs time curve from time 0 to the time of the last AUC0-tlast measurable concentration AUC0-inf area under the concentration vs time curve from time 0 to infinity CL systemic clearance MRT0-inf mean residence time from time zero to infinity VSS steady-state volume of distribution F bioavailability=(Dose^iv*AUC^po)/(Dose^po*AUC^iv)*100

A short description of data set [5]: Liver microsomes stability, human. Conditions: for half-life at 2 μM / microsomal CLint at 2 μM: microsomes; for Remaining Percentage (%) after 60 min Human: with NADPH, 2 μM, 0.5 mg/mL microsomes. How it is done:
as §1, §2, §3, §4, §5, §6, §7, §8, §9

[6] abbreviates: male, C57 BL/6, iv, i.v., I-28 2.2 mg/kg, I-28 in mouse plasma, n = 2.
The mark [7] stands for this setting: i.v., Metabolite (I-45) alone 1 mg/kg, mouse plasma.
Where [8] appears, read: p.o., Metabolite (I-45) alone 10 mg/kg, mouse plasma.

The text below walks through data of US11591353B2 (Mindset Pharma Inc., priority 2020, dated 2023).

The microsomal CLint is the rate of metabolic loss divided by the concentration. A lower microsomal CLint goes with greater metabolic stability. One may read the EC50 as the concentration giving half of the maximal effect. A higher EC50 goes with a need for much substance. In general, AUC(0-inf) refers to total exposure, with the tail of the curve extrapolated. One may read the Tmax as the time at which the peak concentration occurs. One may read the Cmax as the highest concentration seen after dosing. For the compound `[2H]C([2H])([2H])N(C([2H])([2H])[2H])C([2H])([2H])C([2H])([2H])c1c[nH]c2cccc(OC(=O)CCCCCCC/C=C\C/C=C\CCCCC)c12` [Compound I-28, 3-(2-(bis(methyl-d3)amino)ethyl-1,1,2,2-d4)-1H-indol-4-yl (9Z,12Z)-octadeca-9,12-dienoate], in data set [1], the half-life at 2 μM is 0.659 h, the microsomal CLint at 2 μM stood at 35.1 µL/min/mg and the “Remaining Percentage (%) after 60 min Rat” value stood at 34.92%. Also, in data set [2], the half-life at 2 μM was determined as 0.276 h, the microsomal CLint at 2 μM worked out at 83.7 µL/min/mg and the “Remaining Percentage (%) after 60 min Mouse” value is 8.12%. Moreover, the EC50 in data set [3] worked out at 965 nM. For the same compound, the “AUC0-inf/Dose (h*kg*ng/mL/mg)” value in data set [4] (i.v., I-28 2.2 mg/kg, I-28 in mouse plasma, n = 2) was 62.1 (n = 2) h*kg*ng/mL/mg. The C0 in data set [4] (male, C57 BL/6, iv, i.v., I-28 2.2 mg/kg (equimolar to 1 mg/kg metabolite), I-28 in mouse plasma) is 448 ± 411 ng/mL. Moreover, in data set [4] (setting [6]), the AUC(0-inf) is 137 ng·h/mL and the clearance was 385 mL/min/kg. Moreover, in data set [4] (male, C57 BL/6, iv, i.v., I-28 2.2 mg/kg, I-28 in mouse plasma, n = 2, read-out: Apparent t1/2 (converted)), the half-life is 4.92 h. In addition, in data set [4] (male, C57 BL/6, iv, i.v., I-28 2.2 mg/kg, I-28 in mouse plasma, n = 2, read-out: MRT0-inf), the MRT inf amounted to 0.977 h. Further, the Vd in data set [4] (male, C57 BL/6, iv, i.v., I-28 2.2 mg/kg, I-28 in mouse plasma, n = 2, read-out: VSS) is 17 L/kg. Further, the AUC(0-t) in data set [4] (male, C57 BL/6, iv, i.v., I-28 2.2 mg/kg, I-28 in mouse plasma, read-out: AUC0-tlast) stood at 110 ± 85.9 ng·h/mL. Further, the Tmax in data set [4] (male, C57 BL/6, po, p.o., I-28 22 mg/kg (equimolar to 10 mg/kg metabolite), I-28 in mouse plasma) worked out at 2.17 ± 3.32 h. The maximum concentration (Cmax) in data set [4] (male, C57 BL/6, po, p.o., I-28 22 mg/kg, I-28 in mouse plasma) stood at 1.06 ± 0.447 ng/mL. Also, the “Cmax/Dose” value in data set [4] (p.o., I-28 22 mg/kg, I-28 in mouse plasma) is 0.0482 ± 0.0203 kg·ng/mL/mg. In data set [5] (human), this compound had a half-life at 2 μM of 2.23 h and a microsomal CLint at 2 μM of 10.4 µL/min/mg. Moreover, in data set [5] (human, rat and mouse liver microsomes, 60 minute), the “metabolic stability in liver microsomes (in words)” value is reported as “rapidly metabolized”. In addition, the “Remaining Percentage (%) after 60 min Human” value in data set [5] came to 73.27%.

In the case of `[2H]C([2H])([2H])N(C([2H])([2H])[2H])C([2H])([2H])C([2H])([2H])c1c[nH]c2cccc(O)c12` [Compound I-45, 3-(2-(bis(methyl-d3)amino)ethyl-1,1,2,2-d4)-1H-indol-4-ol], in data set [1], the half-life at 2 μM was 1.76 h, the microsomal CLint at 2 μM came out at 13.1 µL/min/mg and the “Remaining Percentage (%) after 60 min Rat” value stood at 67.47%. Further, in data set [2], the half-life at 2 μM is 4.09 h, the microsomal CLint at 2 μM was found to be 5.65 µL/min/mg and the “Remaining Percentage (%) after 60 min Mouse” value worked out at 84.40%. In addition, the “agonist effect on h5-HT2A receptor (in words)” value in data set [3] (agonist mode, FLIPR) is “active agonist”. Moreover, in data set [4] (setting [7]), the “AUC0-inf/Dose” value amounted to 181 ± 30.8 kg·ng·h/mL/mg and the “Apparent t1/2” value is on record as 5.32 ± 2.99 h. Also, in data set [4] (male, C57 BL/6, mouse, plasma, iv, 1 mg/kg), the C0 came to 566 ± 85 ng/mL. In data set [4] (setting [8]), the “AUC0-inf/Dose” value is 79.5 ± 12.1 kg·ng·h/mL/mg, the “Apparent t1/2” value is reported as 4.52 ± 0.481 h and the “Cmax/Dose” value was found to be 70.4 ± 12.8 kg·ng/mL/mg. In data set [5] (human), this compound returned a half-life at 2 μM of 5.01 h and a microsomal CLint at 2 μM of 4.61 µL/min/mg. Also, the “Remaining Percentage (%) after 60 min Human” value in data set [5] was found to be 87.08%.
